Assay results taken from patent publication US6858638B2, “Substituted indazoles, compositions containing them, method of production and use” (Aventis Pharma S.A., priority 2002, dated 2005).
Where two headings read alike, the source gives them in different places.

Legend:
Format in all cases: biochemical
human KDR enzyme = molecular target: T1, human KDR enzyme (Homo sapiens, UniProt P35968); assay: KDR substrate (PLCγ) phosphorylation, scintillation assay; settings: read-out: KDR % inhib at 10 μM
T1 construct: The cytoplasmic domain of the human KDR enzyme; GST; made in house; host or cells: SF21 insect cells (baculovirus)
Procedure, shortened: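 Values are percent inhibition relative to the compound-free control, read by scintillation counting of 33P incorporation after EDTA stop. Baculovirus/SF21-expressed GST-KDR cytoplasmic domain (100 ng) acted for 1 h at 37 °C in pH 7.2 MOPS kinase buffer. The substrate was GST-PLCγ SH2-SH3 (2 μg), added with γ33P-ATP and 2 μM unlabeled ATP.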

[1] = molecular target: T2, human IGF1R cytoplasmic domain (Homo sapiens, UniProt P08069); assay: IGF1R autophosphorylation inhibition, time resolved fluorescence (HTRF) assay; settings: read-out: IGF1R % inhib at 10 μM
T2 construct: The human IGF1R cytoplasmic domain was cloned; made in house; host or cells: SF21 insect cells (baculovirus)
Description: The inhibitory activity of the compounds on IGF1R is determined by measuring the inhibition of the autophosphorylation of the enzyme using a time resolved fluorescence (HTRF) assay.
The human IGF1R cytoplasmic domain was cloned, as a fusion with glutathione S-transferase (GST), into the baculovirus expression vector pFastBac-GST. The protein was expressed in SF21 cells and purified to approximately 80% homogeneity.
The kinase activity was determined by incubating the enzyme with various concentrations of test compound in a 50 mM Hepes buffer, pH 7.5, containing 5 mM MnCl2, 50 mM NaCl, 3% glycerol, 0.025% Tween […] of ATP. The enzyme reaction is stopped by adding 100 mM Hepes buffer, pH 7.0, containing 0.4 M KF, 133 mM EDTA and 0.1% BSA containing an anti-GST antibody labeled with XL665 and an antiphosphotyrosine antibody conjugated to europium cryptate (Eu-K). The characteristics of the two fluorophores, XL-665 and Eu-K, are available in G. Mathis et al., Anticancer Research, 1997, 17, pages 3011-3014. The transfer of energy from the excited europium cryptate to the acceptor XL665 is proportional to the degree of autophosphorylation of IGF1R. The long-lived signal specific for XL-665 is measured in a Victor analyzer plate counter (Perkin-elmer). The inhibition of the IGF1R autophosphorylation activity with compounds of the invention is expressed as percentage inhibition compared to a control whose activity is measured in the absence of test compound.

human FAK = molecular target: T3, human FAK (Homo sapiens, UniProt Q05397); assay: FAK autophosphorylation inhibition, time resolved fluorescence (HTRF) assay; settings: 10 μM (values without asterisk); read-out: FAK % inhib at 10 μM
T3 construct: The complete cDNA of human FAK; made in house; host or cells: baculovirus expression system (vector pFastBac HTc)
Procedure, shortened: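 Autophosphorylation was detected by europium-cryptate anti-pTyr and XL665 anti-His energy transfer, percent inhibition from the 665/620 ratio relative to no-compound wells. Enzyme: His-FAK full length, 6.6 µg/ml, incubated 1 h at 37 °C, pH 7.2, 15 µM ATP.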

Aurora2 kinase = molecular target: T4, Aurora2 kinase (Homo sapiens, UniProt O14965); assay: Aurora2 kinase radioactivity scintillation assay using nickel chelate (NuMA substrate); settings: read-out: Aurora2 % inhib at 10 μM
T4 construct: A complete recombinant Aurora2 enzyme; His tag (N); made in house; host or cells: E. coli
T4 sequence (O14965 1-403): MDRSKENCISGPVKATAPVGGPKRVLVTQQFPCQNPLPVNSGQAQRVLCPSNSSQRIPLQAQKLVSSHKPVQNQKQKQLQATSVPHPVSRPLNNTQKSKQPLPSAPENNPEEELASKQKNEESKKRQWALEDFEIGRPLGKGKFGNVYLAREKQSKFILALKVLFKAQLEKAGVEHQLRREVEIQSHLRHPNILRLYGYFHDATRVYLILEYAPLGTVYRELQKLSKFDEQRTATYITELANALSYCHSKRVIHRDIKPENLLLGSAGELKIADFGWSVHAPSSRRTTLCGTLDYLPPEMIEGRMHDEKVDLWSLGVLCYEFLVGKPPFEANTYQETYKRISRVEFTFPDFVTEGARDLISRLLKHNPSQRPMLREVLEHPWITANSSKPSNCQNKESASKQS
Procedure, shortened: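 Read-out is 33P incorporation into His-NuMA (Q1687-H2101, 0.5 μM) captured on nickel chelate, after 30 min at 37 °C with 0.02 μM His-Aurora2 and 1 μM ATP. Expressed as percentage inhibition of uncompounded control activity, background subtracted.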

T1 sequence (P35968 786-1356 limits assumed): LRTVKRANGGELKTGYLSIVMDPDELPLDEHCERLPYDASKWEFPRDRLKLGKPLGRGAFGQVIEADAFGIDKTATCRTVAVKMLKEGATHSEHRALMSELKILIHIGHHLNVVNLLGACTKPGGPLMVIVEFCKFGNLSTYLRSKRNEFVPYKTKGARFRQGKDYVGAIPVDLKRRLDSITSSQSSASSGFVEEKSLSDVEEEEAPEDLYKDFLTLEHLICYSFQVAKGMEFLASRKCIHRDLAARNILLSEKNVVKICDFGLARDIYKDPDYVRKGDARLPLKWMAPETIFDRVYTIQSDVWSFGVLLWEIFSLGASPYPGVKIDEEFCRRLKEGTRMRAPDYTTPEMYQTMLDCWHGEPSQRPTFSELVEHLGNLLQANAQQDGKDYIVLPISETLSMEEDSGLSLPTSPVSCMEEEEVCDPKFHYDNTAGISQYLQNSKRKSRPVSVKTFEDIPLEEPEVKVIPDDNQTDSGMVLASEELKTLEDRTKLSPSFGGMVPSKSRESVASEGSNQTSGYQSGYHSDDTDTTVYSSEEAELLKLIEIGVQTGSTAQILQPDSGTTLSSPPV
T3 sequence (Q05397 whole entry): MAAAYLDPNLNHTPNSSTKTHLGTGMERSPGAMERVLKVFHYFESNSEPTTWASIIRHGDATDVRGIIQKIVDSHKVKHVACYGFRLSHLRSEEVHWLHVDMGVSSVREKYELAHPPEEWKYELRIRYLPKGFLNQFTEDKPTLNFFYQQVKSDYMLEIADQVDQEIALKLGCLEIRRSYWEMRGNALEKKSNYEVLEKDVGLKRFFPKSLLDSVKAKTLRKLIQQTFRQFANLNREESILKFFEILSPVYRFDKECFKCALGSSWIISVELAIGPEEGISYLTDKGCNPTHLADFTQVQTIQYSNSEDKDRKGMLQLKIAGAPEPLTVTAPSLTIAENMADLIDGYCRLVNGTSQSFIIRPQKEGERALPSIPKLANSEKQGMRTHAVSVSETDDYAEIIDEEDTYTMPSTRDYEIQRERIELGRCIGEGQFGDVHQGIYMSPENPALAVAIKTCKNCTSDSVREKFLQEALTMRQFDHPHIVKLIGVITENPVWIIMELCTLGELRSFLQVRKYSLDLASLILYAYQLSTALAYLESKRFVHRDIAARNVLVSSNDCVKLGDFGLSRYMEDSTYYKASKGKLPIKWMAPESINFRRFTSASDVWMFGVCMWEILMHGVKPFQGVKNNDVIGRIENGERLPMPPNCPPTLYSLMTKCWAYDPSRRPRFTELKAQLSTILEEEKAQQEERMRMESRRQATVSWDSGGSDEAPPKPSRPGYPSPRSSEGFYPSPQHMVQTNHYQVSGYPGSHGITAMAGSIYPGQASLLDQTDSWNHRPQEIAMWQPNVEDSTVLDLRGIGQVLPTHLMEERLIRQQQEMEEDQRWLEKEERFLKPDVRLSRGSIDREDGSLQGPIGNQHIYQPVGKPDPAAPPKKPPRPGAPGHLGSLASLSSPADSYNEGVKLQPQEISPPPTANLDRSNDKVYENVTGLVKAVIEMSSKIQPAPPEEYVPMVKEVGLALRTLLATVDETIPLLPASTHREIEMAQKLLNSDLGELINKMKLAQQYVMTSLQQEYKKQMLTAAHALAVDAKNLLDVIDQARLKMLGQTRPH
T2 sequence (P08069 960-1367 limits assumed): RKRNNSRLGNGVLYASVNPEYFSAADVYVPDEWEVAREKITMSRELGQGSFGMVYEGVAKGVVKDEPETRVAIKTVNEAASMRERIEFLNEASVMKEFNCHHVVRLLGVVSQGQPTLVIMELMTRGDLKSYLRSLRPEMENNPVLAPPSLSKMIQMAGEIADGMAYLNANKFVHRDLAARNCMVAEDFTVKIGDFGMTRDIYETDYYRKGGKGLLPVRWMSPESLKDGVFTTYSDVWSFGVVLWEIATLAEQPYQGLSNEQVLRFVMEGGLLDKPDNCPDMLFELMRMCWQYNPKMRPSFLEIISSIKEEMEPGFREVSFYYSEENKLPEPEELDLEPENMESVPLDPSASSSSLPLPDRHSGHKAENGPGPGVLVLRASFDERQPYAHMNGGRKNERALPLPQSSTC

SMILES	inhibition at 10 µM (human KDR enzyme; 10 μM) [%]	inhibition at 10 µM ([1]; 10 μM) [%]	inhibition at 10 µM (human FAK) [%]	inhibition at 10 µM (Aurora2 kinase; 10 μM) [%]	inhibition at 10 µM (human KDR enzyme) [%]	inhibition at 10 µM [1] [%]	inhibition at 10 µM (Aurora2 kinase) [%]
CS(=O)(=O)c1ccccc1S(=O)(=O)Nc1ccc2[nH]nc(/C=C/c3ccccc3)c2c1 [Example 78, 2-Methylsulfonyl-N-[3-((E)-styryl)-1H-indazol-5-yl]benzenesulfonamide]	97	96	94	100	–	–	–
O=S(=O)(Nc1ccc2[nH]nc(-c3cc4ccccc4[nH]3)c2c1)c1ccccc1 [Example 82, N-[3-(1H-Indol-2-yl)-1H-indazol-5-yl]benzenesulfonamide]	100	100	93	100	–	–	–
CS(=O)(=O)c1ccccc1S(=O)(=O)Nc1ccc2[nH]nc(Nc3ccccc3)c2c1 [Example 83, 2-Methylsulfonyl-N-(3-phenylamino-1H-indazol-5-yl)-benzenesulfonamide]	60	100	92	93	–	–	–
O=S(=O)(Nc1ccc2[nH]nc(-c3cc4ccccc4[nH]3)c2c1)c1cccc(F)c1 [Example 85, 3-Fluoro-N-[3-(1H-indol-2-yl)-1H-indazol-5-yl]benzenesulfonamide]	99	99	95	100	–	–	–
CN(C)c1c(F)c(F)c(S(=O)(=O)Nc2ccc3[nH]nc(-c4cc5ccccc5[nH]4)c3c2)c(F)c1F [Example 86, 4-Dimethylamino-2,3,5,6-tetrafluoro-N-[3-(1H-indol-2-yl)-1H-indazol-5-yl]benzenesulfonamide]	85	53	40	86	–	–	–
C[Si](C)(C)C#Cc1cccc(-c2n[nH]c3ccc(NS(=O)(=O)c4ccccc4S(C)(=O)=O)cc23)c1 [Example 91, 2-Methylsulfonyl-N-[3-(3-trimethylsilanylethynylphenyl)-1H-indazol-5-yl]benzenesulfonamide]	–	–	95	–	35	7	11
CS(=O)(=O)c1ccccc1S(=O)(=O)Nc1ccc2[nH]nc(-c3cc(C(F)(F)F)cc(C(F)(F)F)c3)c2c1 [Example 101, N-[3-(3,5-bistrifluoromethylphenyl)-1H-indazol-5-yl]-2-methylsulfonylbenzenesulfonamide]	39	28	84	30	–	–	–
CS(=O)(=O)c1ccccc1S(=O)(=O)Nc1ccc2[nH]nc(-c3cc(F)cc(F)c3)c2c1 [Example 102, N-[3-(3,5-difluorophenyl)-1H-indazol-5-yl]-2-methylsulfonylbenzenesulfonamide]	77	74	90	96	–	–	–
CSc1ccccc1-c1n[nH]c2ccc(NS(=O)(=O)c3ccccc3S(C)(=O)=O)cc12 [Example 103, 2-methylsulfonyl-N-[3-(2-methylsulfanylphenyl)-1H-indazol-5-yl]benzenesulfonamide]	25	19	61	40	–	–	–
CS(=O)(=O)c1ccccc1S(=O)(=O)Nc1ccc2[nH]nc(-c3ccc4[nH]ccc4c3)c2c1 [Example 104, N-[3-(1H-indol-5-yl)-1H-indazol-5-yl]-2-methylsulfonylbenzenesulfonamide]	75	73	85	97	–	–	–
Cc1ccccc1-c1n[nH]c2ccc(NS(=O)(=O)c3ccccc3S(C)(=O)=O)cc12 [Example 105, 2-Methylsulfonyl-N-(3-o-tolyl-1H-indazol-5-yl)benzenesulfonamide]	28	25	71	49	–	–	–
O=S(=O)(Nc1ccc2[nH]nc(-c3ccccc3)c2c1)c1cccc2ccccc12 [Example 106, N-(3-Phenyl-1H-indazol-5-yl)-naphthalene-1-sulfonamide]	79	90	43	92	–	–	–
CN(C)c1cccc2c(S(=O)(=O)Nc3ccc4[nH]nc(-c5ccccc5)c4c3)cccc12 [Example 107, 5-Dimethylamino-N-(3-phenyl-1H-indazol-5-yl)naphthalene-1-sulfonamide]	51	84	10	43	–	–	–
O=S(=O)(Nc1ccc2[nH]nc(-c3ccccc3)c2c1)c1ccc2ccccc2c1 [Example 108, N-(3-Phenyl-1H-indazol-5-yl)-naphthalene-2-sulfonamide]	72	78	8	44	–	–	–
O=S(=O)(Nc1ccc2[nH]nc(-c3ccccc3)c2c1)c1cccc2cccnc12 [Example 111, N-(3-Phenyl-1H-indazol-5-yl)quinoline-8-sulfonamide]	83	99	66	100	–	–	–
CC(C)c1cc(C(C)C)c(S(=O)(=O)Nc2ccc3[nH]nc(-c4ccccc4)c3c2)c(C(C)C)c1 [Example 114, 2,4,6-Triisopropyl-N-(3-phenyl-1H-indazol-5-yl)-benzenesulfonamide]	90	50	48	98	–	–	–
Cc1cc(C)c(S(=O)(=O)Nc2ccc3[nH]nc(-c4ccccc4)c3c2)c(C)c1 [Example 115, 2,4,6-Trimethyl-N-(3-phenyl-1H-indazol-5-yl)-benzenesulfonamide]	78	79	31	70	–	–	–
O=[N+]([O-])c1ccc(S(=O)(=O)Nc2ccc3[nH]nc(-c4ccccc4)c3c2)cc1 [Example 119, 4-Nitro-N-(3-phenyl-1H-indazol-5-yl)benzenesulfonamide]	78	50	25	50	–	–	–
CCCCS(=O)(=O)Nc1ccc2[nH]nc(-c3ccccc3)c2c1 [Example 129, N-(3-Phenyl-1H-indazol-5-yl)-butanesulfonamide]	58	30	46	64	–	–	–
O=C(NCc1ccc(S(=O)(=O)Nc2ccc3[nH]nc(-c4ccccc4)c3c2)s1)c1ccccc1 [Example 140, N-[5-(3-Phenyl-1H-indazol-5-ylsulfamoyl)thiophen-2-ylmethyl]benzamide]	70	40	6	71	–	–	–
O=S(=O)(Nc1ccc2[nH]nc(-c3ccccc3)c2c1)c1ccccc1OC(F)(F)F [Example 142, N-(3-Phenyl-1H-indazol-5-yl)-2-trifluoromethoxy-benzenesulfonamide]	85	74	40	100	–	–	–
